22 compounds from patent US6689777B2 (Kenneth S. Warren Institute, priority 2001, dated 2004) can be followed below.

Where a name gives a salt, the structure may show the parent alone. Read-outs that look alike come from different tables or passages of the source.

The test system of one assay is synthetic hemozoin. As to the kind of experiment: Depolymerization of synthetic hemozoin in vitro. As to conditions: 50 mM test compound, acetate buffer pH 5.0, 37° C., 16 hours. In kind it is biochemical. The procedure: This activity is evaluated by incubating a suspension of monomer-free hemozoin at 37° C. with compounds of the present invention for 16 hours. After incubation, hemozoin is separated from any solubilized heme and soluble heme oligomers, the oligomers depolymerized, and the heme present in the supernatants determined.
The synthesis of synthetic hemozoin is carried out as previously described (26). In brief, 60 μmoles of hematin was dissolved in 8 ml of 0.1N NaOH. Following dissolution 49 mmoles of glacial acetic acid was added and the suspension heated at 70° C. overnight. The precipitate was then washed extensively with LPS-free water. In order to remove unreacted heme the precipitate was extracted with 0.1M sodium bicarbonate (pH 9.1) for three hours. The remaining insoluble material was recovered by centrifugation, resuspended in EtOH and transferred to sterile Eppendorf tubes. The material was washed several times in EtOH and finally resuspended in LPS-free double-distilled H2O. The hemozoin preparation was then tested for endotoxin by using the Limulus Amebocyte Lysate test following manufacturer's instructions. Although the preparation of LPS-free hemozoin from native or synthetic sources is not critical for in vitro depolymerization studies, it is critical for studies involving monocytes and animals (see Examples below). Small amounts of LPS can evoke a considerable cytokine response and interfere with interpretation of results. The amount of heme in the final product was determined from a small aliquot using the pyridine-hemochrome method as previously described (26). The preparations are stored at 4° C. until used.
A suspension of monomer-free hemozoin (equivalent to 2 mM free heme) as prepared above was incubated at 37° C. with […] test compound in total volume of 500 μl in acetate buffer (pH: 5.0) in siliconized Eppendorf tubes (Brinkmann Instruments, Westbury, N.Y.) for 16 hours. A control sample containing distilled H2O instead of hemozoin was included. The samples were centrifuged at 14,000 rpm (Eppendorf centrifuge model 5415C, Brinkmann Instruments, Westbury, N.Y.) for 20 min; then 225 μl supernatant was diluted in 175 μl acetate buffer (pH 5.0). Another 225 μl was added to 175 μl 0.5 M NaOH to dissolve possible oligomeric depolymerization products to monomers. Half of the pellet was washed twice for 2.5 hr in 200 μl 2.5% SDS (v/v) in dH2O, the other half was washed twice in 200 μl HCO3^− buffer (pH: 9.1). Both sample supernatants and SDS and HCO3^− buffer supernatants were centrifuged 14,000 rpm for 20 min. and supernatants were added to 10 μl sodium dithionite (200 mg/ml dH2O) to reduce the heme monomers in solution to Fe^2+. All samples were measured in triplicate at 540 nm (Model UV1601 spectrophotometer, Shimradzu Corp, Columbia, Md.). The OD obtained from the blind sample was subtracted from the OD of the hemozoin containing sample.

Assay [1] concerns P. falciparum. The assay is described as follows: P. falciparum growth in culture ([3H]-hypoxanthine incorporation). In kind it is cell-based. As to conditions: Plasmodium falciparum, read-out: IC50 vs. P. falc.
Assay [2] has as its system P. falciparum. Described as above. As to conditions: growth in culture, [3H]-hypoxanthine incorporation, read-out: IC50 vs. P. falc. The format is cell-based. As to the method:
To determine the effectiveness of the compounds of the present invention against the erythrocytic stage of the malarial parasite, P. falciparum was grown in human erythrocyte suspensions and maintained at 37° C. in candle jars according to the method of Trager and Jensen (15,16). Parasites were stage-synchronized by incubating mainly ring-stage infected erythrocytes in 5% sorbitol for 10 minutes at room temperature (17). Cultures undergo one growth cycle (2 days) before use. Strains used include the chloroquine sensitive strains D10 and HB3, and the chloroquine resistant isolates Dd2 and FCR.
Parasite growth was determined by measuring incorporation of [^3H]-hypoxanthine into the nucleic acids of the parasite (18). Effects of the compounds of the present invention on parasite growth was determined by measuring the reduction in incorporation of radiolabel as compared to controls. Briefly, assays are performed in 96-well microtiter plates. After 24 h of candle jar incubation at 37° C., [^3H]-hypoxanthine is added to each well. After 18 h the plates are harvested onto glass fiber filter 96 well plates using a cell harvester, dried, and the amount of radioactivity is determined. Drug IC50 values (molar concentration which decreases [^3H]-hypoxanthine incorporation by 50% as compared to drug-free controls) are calculated by extrapolation of the log dose-response curves using curve fitting software (Origin, Microcal Software, Northampton, Mass.).
Parasites were grown in A^+ human erythrocyte suspensions using RPMI-1640 (GIBCO, Gaithersburg, Md.) medium supplemented by 25 mM HEPES (pH 7.35), 0.2% NaHCO3 (23 mM), 0.2% (D)-Glucose and 10% human A^+ plasma and maintained at 37° C. in candle jars according to the method of Trager and Jensen (20,21) Parasites are stage synchronized by incubating mainly ring-stage infected erythrocytes in 5% sorbitol for 10 minutes at room temperature (22). Cultures undergo one growth cycle (2 days) before use. Strains used include the chloroquine sensitive strains D10 and HB3, and the chloroquine resistant isolates Dd2 and FCR.
Parasite growth was determined by measuring incorporation of [^3H]-hypoxanthine into the nucleic acids of the parasite as previously described (23). Effects of the compounds of the present invention on parasite growth was determined by measuring the reduction in incorporation of radiolabel as compared to controls. Briefly, assays were performed in 96-well microtiter plates, each well containing 200 μl of synchronized ring-stage infected erythrocytes in complete media and 50 μl of drug dilution or solvent. The final hematocrit was 1.5% and percent parasitemias range from 2-8%. After 24 h of candle jar incubation at 37° C., 2.5 μCi of [^3H]-hypoxanthine (17 Ci/mmol, Amersham, Arlington Heights, Ill.) in RPMI-1640 media supplemented with 25 mM HEPES (pH 7.35), 0.2% NaHCO3 (23 mM), 0.2% (D)-Glucose is added to each well. After 18 h the plates were harvested onto glass fiber filter 96 well plates using a cell harvester, dried, and 25 μl scintillation acid added per well. The, amount of radioactivity was determined. Drug IC50 values (molar concentration which decreases [^3H]-hypoxanthine incorporation by 50% as compared to drug-free controls) are calculated by extrapolation of the log dose-response curves using curve fitting software (Origin, Microcal Software, Northampton, Mass.). The effects on parasite grown by aromatic guanyllhydrazones, bisguanylhydrazones, naphthothiazolium salts, and other compounds of the instant invention, together with data on hemozoin depolymerization from Example 5, are shown in tables 1 through 4, respectively.

[3] abbreviates: Table 3, naphthothiazolium salts, in culture.
The mark [4] stands for this setting: Table 1, aryl monoguanylhydrazones, growth in culture.

The IC50 is the point on the concentration scale where inhibition reaches its midpoint. `Cc1c(O)c2ccccc2c2c1sc(Nc1ccccc1)[n+]2C.[Cl-]` [1,2-dihydro-1,4-dimethyl-2-(phenylimino)naphtho[1,2-d]thiazol-5-ol monohydrochloride]: the “% depol. hemoz.” value in the assay on synthetic hemozoin (Table 3) was 0.0%. For the same compound, the IC50 with P. falciparum [1] (setting [3]) was over 10000 nM.

On to `Cc1c(O)c2ccccc2c2c1sc(NCCO)[n+]2C.[Cl-]` [1,2-dihydro-2-[(2-hydroxyethyl)imino]-1,4-dimethylnaphtho[1,2-d]thiazol-5-ol monohydrochloride], for which the “% depol. hemoz.” value in the assay with synthetic hemozoin (Table 3) is given as 3.1%. The IC50 with P. falciparum [1] (setting [3]) was found to be 1400 nM.

For the compound `C=CCNc1sc2c(C)c(O)c3ccccc3c2[n+]1CC=C.[Cl-]` [1,2-dihydro-4-methyl-1-(2-propenyl)-2-(2-propenylimino)naphtho[1,2-d]thiazol-5-ol monohydrochloride], the “% depol. hemoz.” value in the assay with synthetic hemozoin (Table 3) is on record as 4.8%. In addition, the IC50 in the assay on P. falciparum [1] (setting [3]) was determined as 6000 nM. For `Cc1c(O)c2ccccc2c2nc(Nc3ccccc3)sc12.Cl` [1,2-dihydro-4-methyl-2-(phenylimino)naphtho[1,2-d]thiazol-5-ol monohydrochloride] the same measures were 0.0% and 4200 nM.

For `CCNc1sc2c(C)c(O)c3ccccc3c2[n+]1CC.[Cl-]` [1-ethyl-2-(ethylimino)-1,2-dihydro-4-methylnaphtho[1,2-d]thiazol-5-ol monohydrochloride], the “% depol. hemoz.” value in the assay with synthetic hemozoin (Table 3) is on record as 2.4%. In the assay with P. falciparum [1] (setting [3]), the IC50 stood at 2500 nM.

With `Cl.Cl.N=C(N)NN=C1CCC(=NNC(=N)N)CC1` [2,2′-(1,4-cyclohexanediylidene)bis(hydrazinecarboximidamide) dihydrochloride], the “% depol. hemoz.” value in the assay with synthetic hemozoin (Table 4) stood at 0%. Further, in the assay on P. falciparum [1] (Table 4, in culture), the IC50 came to 2000 nM. Regarding `CC(=NNC(=N)N)c1cccc(C(C)=NNC(=N)N)c1N` [2,2′-[(2-amino-1,3-phenylene)diethylidyne]bis(hydrazinecarboximidamide) dihydrochloride], in the assay on P. falciparum [2] (Table 2, aromatic bisguanylhydrazones), the IC50 worked out at 6300 nM. Take `C/C(=N\NC(=O)CN(C)C)c1cccc(/C(C)=N/NC(=O)CN(C)C)n1.Cl.Cl` [2,6-bis[1-[[(dimethylamino)acetyl]hydrazono]ethyl]pyridine dihydrochloride]: the “% depol. hemoz.” value with synthetic hemozoin (Table 4) is reported as 0%. Besides, in the assay on P. falciparum [1] (Table 4, in culture), the IC50 turned out to be 1500 nM. In the case of `Cc1c(O)c2ccccc2c2c1sc(NC1CCCCC1)[n+]2CCO.[Cl-]` [2-(cyclohexylimino)-5-hydroxy-4-methylnaphtho[1,2-d]thiazole-1(2H)-ethanol monohydrochloride], the “% depol. hemoz.” value in the assay with synthetic hemozoin (Table 3) was determined as 0.4%. The IC50 with P. falciparum [1] (setting [3]) was determined as 1000 nM. As for `CC(=NNC(=N)N)c1ccc(OCc2ccccc2)c(C)c1O.Cl` [2-[1-(4-benzyloxy-2-hydroxy-3-methylphenyl)ethylidene]hydrazinecarboximidamide hydrochloride], the “% depol. hemoz.” value in the assay with synthetic hemozoin (Table 1) is 1.9%. Further, the IC50 in the assay on P. falciparum [1] (setting [4]) amounted to 1330 nM.

Consider `CC(CCC1=C(C)C(=O)c2ccccc2C1=O)=NNC(=N)N.Cl` [2-[3-(1,4-dihydro-1,4-dioxo-3-methyl-2-naphthalenyl)-1-methylpropylidene]hydrazinecarboximidamide hydrochloride], for which the “% depol. hemoz.” value in the assay on synthetic hemozoin (Table 4) is given as 0.1%. Further, in the assay on P. falciparum [1] (Table 4, in culture), the IC50 was 1300 nM.

For `CC1=CC(=O)c2cc(CC=NNC(=N)N)ccc2C1=O.Cl` [2-[(1,4-dihydro-1,4-dioxo-3-methyl-7-naphthalenyl)ethylidene]hydrazinecarboximidamide hydrochloride], the “% depol. hemoz.” value in the assay on synthetic hemozoin (Table 1) was determined as 0.4%. Also, the IC50 in the assay with P. falciparum [1] (setting [4]) amounted to 1800 nM. As for `N=C(N)NN=CCc1ccc2ccccc2c1O` [2-[(1-hydroxy-2-naphthyl)ethylidene]hydrazinecarboximidamide hydrochloride], the IC50 in the assay with P. falciparum [1] (setting [4]) turned out to be 6000 nM. Take `Cl.N=C(N)NN=Cc1cccc(O)c1O` [2-[(2,3-dihydroxyphenyl)methylene]hydrazinecarboximidamide hydrochloride]: the “% depol. hemoz.” value in the assay with synthetic hemozoin (Table 1) turned out to be 4.1%. Besides, the IC50 in the assay with P. falciparum [1] (setting [4]) is over 10000 nM.

As for `COc1ccc(C=NNC(=N)N)c(O)c1` [2-[(2-hydroxy-4-methoxyphenyl)methylene]hydrazinecarboximidamide hydrochloride], in the assay with P. falciparum [1] (setting [4]), the IC50 turned out to be 1000 nM. Regarding `COc1ccc(O)c(C=NNC(=N)N)c1.Cl` [2-[(2-hydroxy-5-methoxyphenyl)methylene]hydrazinecarboximidamide hydrochloride], the “% depol. hemoz.” value in the assay with synthetic hemozoin (Table 1) is 0.9%. In the assay with P. falciparum [1] (setting [4]), the half-inhibitory concentration (IC50) is 4400 nM. Regarding `Cl.N=C(N)NN=CCc1ccccc1O` [2-[(2-hydroxyphenyl)ethylidene]hydrazinecarboximidamide hydrochloride], in the assay on synthetic hemozoin (Table 1), the “% depol. hemoz.” value was found to be 0.4%. Moreover, the IC50 in the assay with P. falciparum [1] (setting [4]) is over 10000 nM.

As to `Cl.N=C(N)NN=Cc1ccccc1O` [2-[(2-hydroxyphenyl)methylene]hydrazinecarboximidamide hydrochloride], in the assay on synthetic hemozoin (Table 1), the “% depol. hemoz.” value is given as 3.5%. In the assay on P. falciparum [1] (setting [4]), the IC50 amounted to 3500 nM. `Cl.N=C(N)NN=CCc1ccc(O)c(O)c1` [2-[(3,4-dihydroxyphenyl)ethylidene]hydrazinecarboximidamide hydrochloride]: the “% depol. hemoz.” value in the assay with synthetic hemozoin (Table 1) was found to be 0.5%. Also, in the assay with P. falciparum [1] (setting [4]), the IC50 was over 10000 nM. Consider `N=C(N)NN=Cc1ccnc2ccccc12` [2-[(4-quinolinyl)methylene]hydrazinecarboximidamide hydrochloride], for which, in the assay on P. falciparum [1] (setting [4]), the IC50 stood at 3400 nM. On to `CC(=NNC(=N)N)c1cccc(-c2cc(C)n(C)c(=N)n2)c1` [2-[[3-(3,4-dimethyl-2(3H)-imino-6-pyrimidinyl)phenyl]ethylidene]hydrazinecarboximidamide hydrochloride hydroiodide], for which the IC50 in the assay with P. falciparum [2] (Table 1, aryl monoguanylhydrazones) came to 1050 nM. In the case of `C=CCNc1nc2c(s1)c(C)c(O)c1ccccc12.Cl` [4-methyl-2-(2-propenylamino)naphtho[1,2-d]thiazol-5-ol monohydrochloride], the “% depol. hemoz.” value in the assay with synthetic hemozoin (Table 3) came out at 0.4%. In addition, in the assay with P. falciparum [1] (setting [3]), the IC50 worked out at 6300 nM.
